Results taken from ChEMBL document CHEMBL1681635, “II. SAR studies of pyridyl-piperazinyl-piperidine derivatives as CXCR3 chemokine antagonists” (Bioorg Med Chem Lett, 2011).

biological target: T1, C-X-C chemokine receptor type 3 (Rattus norvegicus, UniProt Q9JII9); assay: Antagonist activity at rat CXCR3; type: functional; settings: not given
T1 sequence (Q9JII9 whole entry): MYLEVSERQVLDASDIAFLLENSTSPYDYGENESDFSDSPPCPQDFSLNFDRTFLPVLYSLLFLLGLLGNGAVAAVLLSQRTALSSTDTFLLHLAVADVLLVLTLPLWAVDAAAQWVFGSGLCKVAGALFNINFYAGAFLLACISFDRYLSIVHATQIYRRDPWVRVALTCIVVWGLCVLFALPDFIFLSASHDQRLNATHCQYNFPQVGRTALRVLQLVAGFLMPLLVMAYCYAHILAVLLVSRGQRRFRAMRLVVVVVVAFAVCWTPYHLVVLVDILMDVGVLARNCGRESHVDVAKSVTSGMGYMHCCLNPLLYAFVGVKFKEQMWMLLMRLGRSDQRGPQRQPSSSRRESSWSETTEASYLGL

SMILES	IC50 [nM]
CCNC(=O)c1cnc(N2CCN(C3CCN(Cc4ccc(Cl)cc4)CC3)[C@@H](CC)C2)c(Cl)c1	1.2
O=C(NCc1ccc(F)c(F)c1)c1cnc(N2CCN(C3CCN(Cc4ccc(Cl)cc4)CC3)CC2)c(Cl)c1	97
CCNC(=O)c1cnc(N2CCN(C3CCN(Cc4ccc(Cl)cc4F)CC3)[C@@H](CC)C2)c(Cl)c1	1.6

system: not listed separately; assay: AUC in Sprague-Dawley rat at 10 mg/kg, po after 6 hrs; type: ADME, organism-based; parameters: time < 6 hr, dose 10 mg/kg, route oral; settings: plasma

SMILES	AUC at 6 h [µM·h]
CCNC(=O)c1cnc(N2CCN(C3CCN(Cc4ccc(Cl)cc4)CC3)[C@@H](CC)C2)c(Cl)c1	0.41
CCNC(=O)c1cnc(N2CCN(C3CCN(Cc4ccc(Cl)cc4F)CC3)[C@@H](CC)C2)c(Cl)c1	0.95

biological target: T2, C-X-C chemokine receptor type 3 (Mus musculus, UniProt O88410); assay: Antagonist activity at mouse CXCR3; type: functional; settings: not given
T2 sequence (O88410 whole entry): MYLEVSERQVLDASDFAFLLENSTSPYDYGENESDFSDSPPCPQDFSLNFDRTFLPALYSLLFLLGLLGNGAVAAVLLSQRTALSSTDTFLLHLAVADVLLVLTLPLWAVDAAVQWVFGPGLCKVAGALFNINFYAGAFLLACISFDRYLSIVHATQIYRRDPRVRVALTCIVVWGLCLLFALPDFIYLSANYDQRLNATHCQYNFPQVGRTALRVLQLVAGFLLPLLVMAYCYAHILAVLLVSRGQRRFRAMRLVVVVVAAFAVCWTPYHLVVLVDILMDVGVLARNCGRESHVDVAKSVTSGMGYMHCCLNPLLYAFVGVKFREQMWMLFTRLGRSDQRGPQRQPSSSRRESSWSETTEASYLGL

SMILES	IC50 [nM]
CCNC(=O)c1cnc(N2CCN(C3CCN(Cc4ccc(Cl)cc4)CC3)[C@@H](CC)C2)c(Cl)c1	0.5
O=C(NCc1ccc(F)c(F)c1)c1cnc(N2CCN(C3CCN(Cc4ccc(Cl)cc4)CC3)CC2)c(Cl)c1	84
CCNC(=O)c1cnc(N2CCN(C3CCN(Cc4ccc(Cl)cc4F)CC3)[C@@H](CC)C2)c(Cl)c1	1.1

biological target: T3, C-X-C chemokine receptor type 3 (Homo sapiens, UniProt P49682); assay: Antagonist activity at human CXCR3; type: functional; settings: not given
T3 sequence (P49682 whole entry): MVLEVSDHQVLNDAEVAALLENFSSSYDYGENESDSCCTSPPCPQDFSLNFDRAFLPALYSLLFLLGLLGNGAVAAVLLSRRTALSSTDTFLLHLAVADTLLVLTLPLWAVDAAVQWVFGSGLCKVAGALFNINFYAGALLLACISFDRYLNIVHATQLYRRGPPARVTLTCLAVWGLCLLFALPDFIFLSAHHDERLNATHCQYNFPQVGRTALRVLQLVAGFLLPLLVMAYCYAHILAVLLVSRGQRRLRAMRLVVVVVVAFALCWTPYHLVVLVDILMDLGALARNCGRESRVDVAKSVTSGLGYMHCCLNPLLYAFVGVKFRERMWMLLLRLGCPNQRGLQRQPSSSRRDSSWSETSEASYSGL

SMILES	IC50 [nM]
CNC(=O)c1cnc(N2CCN(C3CCN(Cc4ccc(C(F)(F)F)cc4)CC3)[C@@H](C)C2)c(Cl)c1	63
CNC(=O)c1cnc(N2CCN(C3CCN(CC(=O)c4ccc(F)cc4)CC3)[C@@H](C)C2)c(Cl)c1	> 10000
CNC(=O)c1cnc(N2CCN(C3CCN(C(=O)c4ccnc5cc(Cl)ccc45)CC3)[C@@H](C)C2)c(Cl)c1	> 10000
CC[C@H]1CN(c2ncc(C(=O)NC)cc2Cl)CCN1C1CCN(Cc2ccc(Cl)cc2)CC1	3
CNC(=O)c1cnc(N2CCN(C3CCN(Cc4ccc(Cl)cc4)C(=O)C3)[C@@H](C)C2)c(Cl)c1 (some centres undefined)	7000
CNC(=O)c1cnc(N2CCN(C3CCN(Cc4ccc(Cl)cc4)CC3)C(C(=O)NC)C2)c(Cl)c1 (centres undefined)	8900
C[C@H]1CN(c2ncc(C(=O)Nc3ccc(F)c(F)c3)cc2Cl)CCN1C1CCN(Cc2ccc(Cl)cc2)CC1	22
CNC(=O)c1cnc(N2CCN(C3CCN(Cc4ccc(C)cc4)CC3)[C@@H](C)C2)c(Cl)c1	87
CC(=O)Nc1cnc(N2CCN(C3CCN(Cc4ccc(Cl)cc4)CC3)[C@@H](C)C2)c(Cl)c1	8
C[C@H]1CN(c2ncc(C(=O)NCc3ccc(Cl)c(Cl)c3)cc2Cl)CCN1C1CCN(Cc2ccc(Cl)cc2)CC1	16
CCNC(=O)c1cnc(N2CCN(C3CCN(Cc4ccc(Cl)cc4)CC3)[C@@H](C(C)C)C2)c(Cl)c1	23
CC1CN(C2CCN(Cc3ccc(Cl)cc3)CC2)CCN1c1ccc(C(=O)NCc2ccc(F)c(F)c2)cn1 (centres undefined)	2700
CNC(=O)c1cnc(N2CCN(C3CCN(C(=O)c4ccc(Cl)cc4)CC3)[C@@H](C)C2)c(Cl)c1	210
CCNC(=O)c1cnc(N2CCN(C3CCN(Cc4ccc(Cl)cc4F)CC3)C(C3CC3)C2)c(Cl)c1 (centres undefined)	32
CNC(=O)c1cnc(N2CCN(C3CCN(Cc4ccc(F)cc4Cl)CC3)[C@@H](C)C2)c(Cl)c1	58
O=C(NCc1ccc(F)c(F)c1)c1cnc(N2CCN(C3CCN(Cc4ccc(Cl)cc4)CC3)C(=O)C2)c(Cl)c1	1400
CNC(=O)c1cnc(N2CCN(C3CCN(C4CCc5cc(Cl)ccc54)CC3)[C@@H](C)C2)c(Cl)c1 (single isomer, unassigned; isomer 2)	35
CNC(=O)c1cnc(N2CCN(C3CCN(Cc4ccc(Cl)cc4)CC3C)CC2)c(Cl)c1 (centres undefined)	64
CNC(=O)c1cnc(N2CCN(C3CCN(Cc4ccc[nH]4)CC3)[C@@H](C)C2)c(Cl)c1	8060

SMILES	IC50 [nM]
CCNC(=O)c1cnc(N2CCN(C3CCN(Cc4ccc(Cl)cc4)CC3)[C@@H](CC)C2)c(Cl)c1	0.3
CNC(=O)c1cnc(N2CCN(C3CCN(Cc4ccco4)CC3)[C@@H](C)C2)c(Cl)c1	8100
CNC(=O)c1cnc(N2CCN(C3CCN(C(C)c4ccc(Cl)cc4)CC3)[C@@H](C)C2)c(Cl)c1 (single isomer, unassigned; isomer 1)	5
C[C@H]1CN(c2ncc(C(=N)N)cc2Cl)CCN1C1CCN(Cc2ccc(Cl)cc2)CC1	80
CC(C)NC(=O)c1cnc(N2CCN(C3CCN(Cc4ccc(Cl)cc4)CC3)[C@@H](C)C2)c(Cl)c1	5
CCNC(=N)c1cnc(N2CCN(C3CCN(Cc4ccc(Cl)cc4)CC3)[C@@H](C)C2)c(Cl)c1	83
C[C@H]1CN(c2ncc(C(=O)NCC3CCCCC3)cc2Cl)CCN1C1CCN(Cc2ccc(Cl)cc2)CC1	2.4
CNC(=O)c1cnc(N2CCN(C3CCN(Cc4ccccn4)CC3)[C@@H](C)C2)c(Cl)c1	7990
CNC(=O)c1cnc(N2CCN(C3CCN(Cc4ccc(Cl)cc4)CC3)[C@@H](CC(C)C)C2)c(Cl)c1	260
CNC(=O)c1cnc(N2CCN(C3CCN(Cc4ccc(Cl)cc4)CC3)C(COC)C2)c(Cl)c1 (centres undefined)	3100
CNC(=O)c1cnc(N2CCN(C3CCN(Cc4cccs4)CC3)[C@@H](C)C2)c(Cl)c1	1980
CNC(=O)c1cnc(N2CCC(N3CCN(Cc4ccc(Cl)cc4)CC3)C(C)C2)c(Cl)c1 (centres undefined)	280
O=C(NCc1ccc(Cl)c(Cl)c1)c1cnc(N2CCC(N3CCN(Cc4ccc(Cl)cc4)CC3)CC2)c(Cl)c1	4500
C[C@H]1CN(c2ncc(NC(=O)C3CC3)cc2Cl)CCN1C1CCN(Cc2ccc(Cl)cc2)CC1	20
COC(=O)c1cnc(N2CCN(C3CCN(Cc4ccc(Cl)cc4)CC3)[C@@H](C)C2)c(Cl)c1	520
O=C(NCc1ccc(Cl)c(Cl)c1)c1cnc(N2CCN(C3CCN(Cc4ccc(Cl)cc4)CC3)CC2)c(Cl)c1	35
CCNC(=O)c1cnc(N2CCN(C3CCN(Cc4ccc(Cl)cc4)CC3)[C@@H](C)C2)c(Cl)c1	2.3
C[C@H]1CN(c2ncc(C(=O)N3CCC3)cc2Cl)CCN1C1CCN(Cc2ccc(Cl)cc2)CC1	630
C[C@H]1CN(C2CCN(Cc3ccc(Cl)cc3)CC2)CCN1c1ncc(C(=O)NCc2ccc(Cl)c(Cl)c2)cc1Cl	39

SMILES	IC50 [nM]
CNC(=O)c1cnc(N2CCN(C3CCN(Cc4ccc(Cl)cc4)CC3)[C@@H](C)C2)c(Cl)c1	32
CNC(=O)c1cnc(N2CCN(C3CCN(Cc4ccc(Cl)cc4)CC3)CC2)c(Cl)c1	560
CNC(=O)c1cnc(N2CCN(C3CCN(Cc4ccc(Cl)cc4Cl)CC3)[C@@H](C)C2)c(Cl)c1	17
CNC(=O)c1cnc(N2CCN(C3CCN(Cc4ccc(Cl)cc4)C(C)C3)CC2)c(Cl)c1 (centres undefined)	31
C[C@@H]1CN(C2CCN(Cc3ccc(Cl)cc3)CC2)CCN1c1ncc(C(=O)NCc2ccc(Cl)c(Cl)c2)cc1Cl	220
C[C@H]1CN(c2ncc(C(N)=O)cc2Cl)CCN1C1CCN(Cc2ccc(Cl)cc2)CC1	39
CNC(=O)c1cnc(N2CCN(C3CCN(Cc4ccc(Cl)cc4)CC3)C(CO)C2)c(Cl)c1 (centres undefined)	910
CNC(=O)c1cnc(N2CCN(C3CCN(C4CCc5cc(Cl)ccc54)CC3)[C@@H](C)C2)c(Cl)c1 (single isomer, unassigned; isomer 1)	29
CNC(=O)c1cnc(N2CCN(C3CCN(Cc4ccc(Cl)cc4)CC3)C(C(=O)OC)C2)c(Cl)c1 (centres undefined)	140
CC1(N2CCN(c3ncc(C(=O)NCc4ccc(Cl)c(Cl)c4)cc3Cl)CC2)CCN(Cc2ccc(Cl)cc2)CC1	27
C[C@H]1CN(c2ncc(C(=O)N3CCCCC3)cc2Cl)CCN1C1CCN(Cc2ccc(Cl)cc2)CC1	900
CNC(=O)c1cnc(N2CCN(C3CCN(Cc4ccc(Cl)cc4F)CC3)[C@@H](C)C2)c(Cl)c1	18
CNC(=O)c1cnc(N2CCN(C3CCN(Cc4ccc(Cl)cc4)CC3)[C@@H](c3ccccc3)C2)c(Cl)c1	830
CNC(=O)c1cnc(N2CCN(C3CCN(Cc4ccc(Cl)cc4)CC3)C(C(=O)O)C2)c(Cl)c1 (centres undefined)	> 50000
CNC(=O)c1cnc(N2CCN(C3CCN(Cc4ccc(S(C)(=O)=O)cc4)CC3)[C@@H](C)C2)c(Cl)c1	> 10000
CNC(=O)c1cnc(N2CCC(N3CCN(Cc4ccc(Cl)cc4)C[C@@H]3C)CC2)c(Cl)c1	12500
CNC(=O)c1cnc(N2CCC(N3CCN(Cc4ccc(Cl)cc4)C[C@H]3C)CC2)c(Cl)c1	7350
CNC(=O)c1cnc(N2CCN(C3CCN(C(C)c4ccc(Cl)cc4)CC3)[C@@H](C)C2)c(Cl)c1 (stereo in doubt; 6l)	110
